{"source": "paper PMC9301717", "about": "(ACS Omega, 2022)", "origin": "cited, not measured here", "key": {"IDE [1]": {"tested_on": "IDE"}, "IDE [2]": {"tested_on": "IDE", "remark": "listed apart in the source"}}, "data": [{"smiles": "Oc1ccc(/C=C/c2cc(O)cc(O)c2)cc1", "note": "[resveratrol]", "values": [{"measurement": "effect on IDE's activity toward Aβ42", "setting": "IDE [1]", "value": "sustains"}, {"measurement": "effect on the enzyme's ability to degrade insulin", "setting": "IDE [2]", "value": "has no effect"}]}]}
